According to patent US12441690B2, “Benzamide derivative compound, method for preparing same, and pharmaceutical composition for treating or preventing inflammatory disease containing same as active ingredient” (SEOUL NATIONAL UNIVERSITY R&DB FOUNDATION, priority 2017, dated 2025):

Experiments:
[1] = test system: Nc/Nga mice treated with DNCB; experiment: Relief of atopic symptoms in Nc/Nga mice treated with DNCB; assay type: in vivo, mouse; conditions: for weight of the spleen: DNCB-treated mice; for lymph node size / number of scratches for 20 minutes / symptoms of hypertrophy and edema of incised dorsal skin / weight of the lymph node: compared to mouse treated with DNCB alone; for skin thickness: incised dorsal skin, DNCB alone 1.19 mm, control 0.45 mm; for side effects: mouse treated with the compound alone, applied on dorsal skin; for incidence of inflammation on the dorsal skin: treated together with DNCB, compared to DNCB only, last day of experiment; for dermatitis score at week 5: treated with DNCB, total of 12 points
Experimental: In order to confirm the atopic dermatitis alleviation effect of the compounds of Examples 1 and 25 according to the present invention, atopic symptom relief experiments were performed on the mice with atopic symptoms.
DNCB (dinitrochlorobenzene) was applied on the back of Nc/Nga mouse to induce atopic dermatitis-like symptoms.
As a carrier for treating DNCB, acetone-olive oil in which acetone and olive oil were mixed (3:1) was used. Six groups of mice were prepared as follows: mice treated with the carrier alone; mice treated with Example 1 compound, mice treated with Example 25 compound, mice treated with DNCB alone, mice treated with DNCB and Example 1 compound, and mice treated with DNCB and Example 25 compound.
Particularly, 2 days before the start of the experiment, hair of the dorsal skin of the mouse was removed. After 2 days after removing the hair, 150 μl of 1% DNCB was dissolved in a carrier and applied on the dorsal skin of the mouse. Four days later, the same solution was applied on the dorsal skin of the mouse once again. Then, 150 μl of 0.2% DNCB solution was applied on the dorsal skin of the mouse once a week for 5 weeks. The experimental group mice were applied with the compounds of Example 1 and Example 25 daily from the 6th day of the experiment to the end of the experiment.
The degree of atopic symptoms in the experimental group and control group mice was evaluated and quantified once a week for a period of 5 weeks. Scores were given as follows for the four items of erythema/bleeding, edema, threshing/corrosion, scaling/dryness, respectively: 1 (none); 2 (moderate); and 3 (serious). Each experimental group and control group was scored based on a total of 12 points.
In order to confirm the effect of the compounds according to the present invention on relieving itching, the number of scratches for 20 minutes of each mouse of the experimental group and control group was measured, and the results are shown graphically in FIG. 5(a), (b).
After completing the experiment, the physical changes were observed by incising the dorsal skin of the experimental group and control group mice. As a result, hypertrophy and edema were clearly observed in the mouse treated with DNCB alone.
In addition, to confirm the alleviating effect of the compounds according to the present invention on skin hypertrophy, the incised skin thickness was measured, and the results are shown graphically in FIG. 5(b).
In order to confirm the effect of the compounds according to the present invention, the lymph node of each mouse of the experimental group and control group was separated and observed. The lymph node is an interaction site between the antigen and immune cells, and since the size of the lymph node increases during the development of inflammatory symptoms, it is possible to confirm the presence or absence of inflammatory disease depending on the size of the lymph node. The photographs of the separated lymph node of each mouse of the experimental group and control group are shown in FIG. 6(a), and the weight of the lymph node and the spleen of each mouse of the experimental group and control group are shown in FIG. 6(b) and FIG. 6(c).

PDE4B enzyme = PDE4B enzyme (Homo sapiens (Human), UniProt Q07343); experiment: PDE4B inhibitory activity, LANCE Ultra cAMP assay; assay type: biochemical; conditions: 50% inhibition from cAMP to 5′AMP
PDE4B enzyme, sequence (Q07343 whole entry): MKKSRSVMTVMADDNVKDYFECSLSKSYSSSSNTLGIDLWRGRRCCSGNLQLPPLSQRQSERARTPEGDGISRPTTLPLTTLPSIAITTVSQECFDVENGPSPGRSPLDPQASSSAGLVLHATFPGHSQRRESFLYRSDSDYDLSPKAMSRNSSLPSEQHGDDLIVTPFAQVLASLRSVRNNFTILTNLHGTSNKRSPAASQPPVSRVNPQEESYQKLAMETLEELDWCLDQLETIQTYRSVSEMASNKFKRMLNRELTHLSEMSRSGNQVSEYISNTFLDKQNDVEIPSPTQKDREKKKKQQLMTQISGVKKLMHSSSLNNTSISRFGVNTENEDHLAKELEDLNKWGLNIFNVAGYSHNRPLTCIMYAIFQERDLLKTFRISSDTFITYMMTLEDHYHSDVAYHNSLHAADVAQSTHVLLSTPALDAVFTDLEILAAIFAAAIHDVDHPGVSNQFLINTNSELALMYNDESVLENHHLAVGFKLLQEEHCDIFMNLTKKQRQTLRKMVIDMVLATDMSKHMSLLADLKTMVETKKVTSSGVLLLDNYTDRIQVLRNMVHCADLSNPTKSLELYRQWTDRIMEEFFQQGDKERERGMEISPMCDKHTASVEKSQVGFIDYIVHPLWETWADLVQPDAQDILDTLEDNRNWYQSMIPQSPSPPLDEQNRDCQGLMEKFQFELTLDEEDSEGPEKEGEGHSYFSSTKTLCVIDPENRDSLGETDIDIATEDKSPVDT
Experimental: In order to evaluate the PDE4B inhibitory activity of the compounds according to the present invention, the following experiment was performed using LANCE Ultra cAMP assay kit (Perkin Elmer, U.S.A).
Particularly, 5 μl of the 3 nM cAMP dissolved reaction buffer was added to each reaction well (LANCE Ultra cAMP assay kit). Then, each example compound dilution solution (2.5 μl) and PDE4B enzyme (0.1 ng/well, BPS Biosciences, San Diego, U.S.A) were added to the well, followed by incubation for 1 hour at 37° C. Next, 5 μl of ULight-anti-cAMP detection reactant supplemented with 5 μl of Eu-cAMP tracer and 1 mM IBMX (LANCE Ultra cAMP assay kit) was added thereto, followed by incubation for 1 hour at 37° C.

[2] = target: PDE4B GFP fusion protein (human PDE4B2A) (Homo sapiens (Human), UniProt Q07343); experiment: PDE4B GFP fusion protein-inhibitor assay in HEK-293 cells; assay type: cell-based
PDE4B GFP fusion protein (human PDE4B2A), sequence (Q07343 other isoform, or with tags, fused parts or gaps): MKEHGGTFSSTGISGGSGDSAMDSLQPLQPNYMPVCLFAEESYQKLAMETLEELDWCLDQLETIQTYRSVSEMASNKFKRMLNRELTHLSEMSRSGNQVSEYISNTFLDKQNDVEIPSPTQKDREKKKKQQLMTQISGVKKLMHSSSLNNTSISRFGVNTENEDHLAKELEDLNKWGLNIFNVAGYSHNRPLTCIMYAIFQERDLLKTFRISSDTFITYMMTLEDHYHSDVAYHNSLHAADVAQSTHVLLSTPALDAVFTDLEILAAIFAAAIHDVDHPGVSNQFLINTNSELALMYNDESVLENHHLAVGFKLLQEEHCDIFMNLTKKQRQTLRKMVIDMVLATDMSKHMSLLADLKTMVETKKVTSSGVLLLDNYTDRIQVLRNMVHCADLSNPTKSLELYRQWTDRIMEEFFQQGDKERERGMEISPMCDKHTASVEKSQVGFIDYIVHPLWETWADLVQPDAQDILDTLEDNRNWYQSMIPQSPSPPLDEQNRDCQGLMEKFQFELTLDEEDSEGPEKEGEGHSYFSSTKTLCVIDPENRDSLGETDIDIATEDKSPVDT
Experimental: To evaluate the intracellular enzyme inhibitory activity of the compounds of Examples 1 and 25, PDE4B GFP fusion protein-inhibitor assay was performed using GFP (green fluorescent protein).
The DNA complementary to human PDE4B2A was amplified by PCR using the DNA genome extracted from the human blood sample (QIAamp DNA Blood Mini Kit, Qiagen, Valencia, CA, U.S.A.).
For DNA amplification, 5′-[…]-3′ was used as a forward primer, and 5′-[…]-3′ was used as a reverse primer.
The amplified PDE4B2A cDNA was cloned into pAcGFP1-N1, the mammalian expression mediator, between the EcoR1 and BamH1 restriction enzyme sites, which was transfected into E. coli DH5α cells using chemical transformation reagents (Invitrogen, Carlsbad, CA, U.S.A.).
Plasmids were isolated from the colonies with kanamycin using Plasmid Midi Kit (Qiagen, Valencia, CA, U.S.A.). Then, the plasmid cloned with PDE4B2A gene was transfected into HEK-293 cells (Korean Cell Line Bank, Seoul, Korea) using lipofectamine 3000 (Invitrogen).
The transfected cells were cultured in DMEM at 37° C. for 48 hours in a CO2 incubator. […] Upon completion of the culture, the fluorescence emission of HEK-293 cells was measured by confocal microscopy to perform quantitative analysis, and the results are shown in FIGS. 1 and 2.
In addition, the ratio of the surface cover area of GFP to the total cell surface area was measured using MetaMorph software, and the results are shown in FIG. 2.

[3] = test system: dorsal skin tissue of Nc/Nga mice treated with DNCB; experiment: Observation of mouse dorsal skin tissue (H&E, toluidine blue, CD4+ cell staining); assay type: in vivo; conditions: for expression of IFN-γ in CD4+ cells / expression of IL-4 of CD4+ cells / expression of IL-5 of CD4+ cells / expression of IL-17 of CD4+ cells: applied on the skin; for expression of IL-4 of CD4+ cells / expression of IL-5 of CD4+ cells / expression of IL-17 of CD4+ cells: compared to DNCB alone; for number of mast cells in skin tissue (toluidine blue): compared to mouse treated with DNCB alone; for skin structure of tissue sections (H&E): groups treated with the compound without DNCB; for epidermal hyperplasia and keratosis (H&E) / inflammatory cells in skin sections (H&E): treated with DNCB
Experimental: The dorsal skin samples were obtained from the experimental group and control group mice. The samples were fixed using 10% neutral buffered formalin and then embedded in paraffin. 4 μm thin tissue sections were prepared and stained with H & E (hematoxylin & eosin). […] In addition, the sections were stained with toluidine blue to investigate mast cell infiltration. Then, the stained tissue sections were photographed using NikonAX70 optical microscope (Tokyo, Japan).
In addition, the mouse tissue CD4+ cells were stained to confirm the expressions of IL-17, IFN-γ, IL-4 and IL-5.

[4] = test system: TNF-α secretion in human PBMC cells; experiment: Inhibition of TNF-α synthesis in LPS-stimulated human PBMC cells; assay type: cell-based; conditions: human PBMC cells stimulated using bacterial LPS
Experimental: In addition, to evaluate the inhibitory effect of the compounds of Example 1 and Example 25 on the synthesis of TNF-α, in vitro assay was performed. Particularly, after culturing human PBMC cells, the secretion of TNF-α was stimulated using bacterial LPS, and the expression level of TNF-α was measured.

[5] = test system: IL-4, IL-5, IFN-γ, IL-17 and IgE in mouse skin tissues; experiment: Sandwich ELISA with mouse skin tissues; assay type: in vivo; conditions: for expression of IL-4 (ELISA) / expression of IL-5 (ELISA) / expression of IL-17 (ELISA): DNCB; for expression of IgE (ELISA): treated with DNCB
Experimental: To confirm the effect of the compounds according to the present invention on the synthesis of DNCB-induced IgE and inflammatory mediators, ELISA (Enzyme-Linked ImmunoSorbent Assay) was performed with the control group and the experimental group treated with the compounds of Example 1 and Example 25.
FIG. 11(a)-FIG. 11(e) are graphs showing the expression levels of IL-4, IL-5, IFN-γ, IL-17 and IgE, respectively, shown when performing sandwich ELISA (Enzyme-Linked ImmunoSorbent Assay) with the mouse skin tissues.

[6] = 24 hours, compared to control group not-treated with any inhibitor
[7] = at the concentrations of 100 nM and 500 nM

Structure (SMILES) | weight of the spleen [1] | lymph node size [1] | number of scratches for 20 minutes [1] | symptoms of hypertrophy and edema of incised dorsal skin [1] | weight of the lymph node [1] | skin thickness [1] | side effects [1] | incidence of inflammation on the dorsal skin [1] | dermatitis score at week 5 [1] | IC50 (PDE4B enzyme) | fluorescence intensity of PDE4B GFP fusion protein [2, 6] | fluorescence intensity of PDE4B GFP fusion protein [2, 7] | expression of IFN-γ in CD4+ cells [3] | expression of IL-4 of CD4+ cells [3] | expression of IL-5 of CD4+ cells [3] | expression of IL-17 of CD4+ cells [3] | number of mast cells in skin tissue (toluidine blue) [3] | skin structure of tissue sections (H&E) [3] | epidermal hyperplasia and keratosis (H&E) [3] | inflammatory cells in skin sections (H&E) [3] | other results
COc1ccc(NC(=O)c2cnc(SC)nc2N2CCOCC2)cc1OC [Example 1, N-(3,4-dimethoxyphenyl)-2-(methylthio)-4-morpholinopyrimidine-5-carboxamide] | significantly reduced | significantly reduced | significantly less | no symptoms of hypertrophy and edema | significantly reduced | 0.83 mm | no side effects were observed | significantly reduced | less than 3 | 31 nM | relatively weak | significantly reduced | activated | more suppressed | more suppressed | more suppressed | significantly reduced | normal skin structure | significantly reduced | almost no inflammatory cells | synthesis of TNF-α [4]: effectively inhibited; expression of IFN-γ (ELISA) [5]: high; expression of IL-4 (ELISA) [5]: significantly suppressed; expression of IL-5 (ELISA) [5]: significantly suppressed; expression of IL-17 (ELISA) [5]: significantly suppressed; expression of IgE (ELISA) [5]: significantly reduced
COc1ccc(-c2nc(C(F)(F)F)ncc2C(=O)Nc2ccncc2)cc1OC [Example 25, 4-(3,4-dimethoxyphenyl)-N-(pyridine-4-yl)-2-(trifluoromethyl)pyrimidine-5-carboxamide] | significantly reduced | significantly reduced | significantly less | no symptoms of hypertrophy and edema | significantly reduced | 0.71 mm | no side effects were observed | significantly reduced | less than 3 | 15 nM | relatively weak | significantly reduced | activated | more suppressed | more suppressed | more suppressed | significantly reduced | normal skin structure | significantly reduced | almost no inflammatory cells | synthesis of TNF-α [4]: effectively inhibited; expression of IFN-γ (ELISA) [5]: high; expression of IL-4 (ELISA) [5]: significantly suppressed; expression of IL-5 (ELISA) [5]: significantly suppressed; expression of IL-17 (ELISA) [5]: significantly suppressed; expression of IgE (ELISA) [5]: significantly reduced
